Experimental data: patent US20230135093A1, “TRIAZOLYL DERIVATIVES AS GABA A ALPHA5 PAM” (Hoffmann-La Roche Inc., priority 2020, published 2023)

Experiments:
h-GABA-A α5β3γ2 [1] = molecular target: T1, h-GABA-A α5β3γ2 (Homo sapiens, UniProt P18507+P31644); experiment: Two-electrode voltage clamp electrophysiology in Xenopus oocytes expressing GABAA receptors (modulation of GABA EC20 current); format: cell-based; conditions: for Efficacy (GABA) % / Fold increase h-GABA-A α5β3γ2 oocyte: Table 1; for Efficacy (GABA) %: % modulation of GABA EC20 = 100*(Fold increase-1); for Fold increase h-GABA-A α5β3γ2 oocyte: Xenopus oocytes, GABA EC20, test compound at approximatively 30 fold its Ki; for Fold increase: positive controls
T1 construct: expressed in transfected cells; host or cells: Xenopus laevis oocytes, micro-injected with subunit RNA
Procedure: Xenopus laevis oocytes at maturation stages V-VI were used for the expression of cloned mRNA encoding GABAA receptor subunits. Oocytes ready for RNA micro-injection were bought from Ecocyte, Castrop-Rauxel, Germany and stored in modified Barth's medium (composition in mM: NaCl 88, KCl 1, NaHCO3 2.4, HEPES 10, MgSO4 0.82, CaNO3 0.33, CaCl2 0.33, pH=7.5) at 20° C. until the experiment.
Oocytes were plated in 96-well plates to be used in an automated instrument (Robo-ocyte, MultiChannelSystems, Reutlingen, Germany) for microinjection and electrophysiological recordings. Approximately 50 nl of an aqueous solution containing the RNA transcripts for the subunits of the desired GABAA receptor was injected into each oocyte. RNA concentrations ranged between 0.3 and 16 ng/μl/subunit and were adjusted in pilot experiments to obtain GABA responses of a suitable size and a maximal effect of the reference modulator, Beta-CCM (3-CCM), a betacarboline negative allosteric modulator (NAM) at the GABAA receptor benzodiazepine (BZD) binding site or Midazolam, a benzodiazepine positive allosteric modulator (PAM) at the GABAA receptor benzodiazepine (BZD) binding site. The concentration of the γ2 subunit encoding RNA usually was 5- to 10-fold higher than the RNAs encoding the other subunits. Oocytes were kept in modified Barth's medium (composition in mM: NaCl 88, KCl 1, NaHCO3 4, HEPES 10, MgSO4 0.82, CaNO3 0.33, CaCl2 0.33, pH=7.5) at 20° C. until the experiment.
Electrophysiological experiments were performed on days 3 to 5 after the micro-injection of mRNA. During the experiment the oocytes were constantly superfused by a solution containing (in mM) NaCl 90, KCl 1, HEPES 5, MgCl2 1, CaCl2 1 (pH 7.4). Oocytes were impaled by two glass microelectrodes (resistance: 0.4 MQ) which were filled with a solution containing KCl 1M+K-acetate 1.5 M and voltage-clamped to −80 mV. The recordings were performed at room temperature using the Roboocyte two-electrode voltage clamp system (Multichannelsystem). After an initial equilibration period of 1.5 min GABA was added for 1.5 min at a concentration evoking approximately 20% of a maximal current response (EC20). After another rest interval of 2.5 min GABA was again added evoking a response of similar amplitude and shape. 0.5 min after the onset of this second GABA application the test compound, at a concentration corresponding to approximatively 30 fold its Ki, was added while GABA was still present. Current traces were recorded at a digitization rate of 10 Hz during and shortly before and after the GABA application.
Each compound and concentration was tested on at least 3 oocytes. Different oocytes were used for different compound concentrations. β-CCM, a negative allosteric modulator, or Midazolam, a positive allosteric modulators, were tested on a few (3-6) oocytes on each 96-well plate for a positive control at a maximally effective. β-CCM inhibited the GABA-evoked current by approximatively 50% (Fold increase 0.5), while Midazolam potentiated the GABA-induced current by approximatively 150% (Fold increase 2.5).
For the analysis, the digitized current traces of the first and second GABA response were superimposed and, if necessary, rescaled to equal maximal amplitudes. The ratio between the two responses during the time interval of test compound application was calculated point by point. The extremum of the resulting “ratio trace” was taken as the efficacy (“Fold increase”) of the compound expressed as “% modulation of GABA EC20” (100*(Fold increase-1)).

h-GABA-A α5β3γ2 [2] = molecular target: T1, h-GABA-A α5β3γ2; experiment: [3H]flumazenil competition binding assay on membranes of HEK293 cells expressing GABAA receptors; conditions: Table 1; displacement of [3H]-Flumazenil (0.5 nM), HEK293 cells expressing human receptors, means of two determinations
Procedure: The affinity of compounds at GABAA receptor subtypes was measured by competition for [3H]flumazenil (85 Ci/mmol; Roche) binding to HEK293 cells expressing rat (stably transfected) or human (transiently transfected) receptors of composition α1β3γ2, α2β3γ2, α3β3γ2 and α5β3γ2.
Cell pellets were suspended in Krebs-tris buffer (4.8 mM KCl, 1.2 mM CaCl2, 1.2 mM MgCl2, 120 mM NaCl, 15 mM Tris; pH 7.5; binding assay buffer), homogenized by polytron for ca. 20 sec on ice and centrifuged for 60 min at 4° C. (50000 g; Sorvall, rotor: SM24=20000 rpm). The cell pellets were resuspended in Krebs-tris buffer and homogenized by polytron for ca. 15 sec on ice. Protein was measured (Bradford method, Bio-Rad) and aliquots of 1 mL were prepared and stored at −80° C.
Radioligand binding assays were carried out in a volume of […] (96-well plates) which contained […] of cell membranes, [^3H]-Flumazenil at a concentration of 1 nM for α1, α2, α3 subunits and 0.5 nM for α5 subunits and the test compound in the range of […]. Nonspecific binding was defined by 10^−5 M diazepam and typically represented less than 5% of the total binding. Assays were incubated to equilibrium for 1 hour at 4° C. and harvested onto GF/C uni-filters (Packard) by filtration using a Packard harvester and washing with ice-cold wash buffer (50 mM Tris; pH 7.5). After drying, filter-retained radioactivity was detected by liquid scintillation counting. Ki values were calculated using Excel-Fit (Microsoft) and are the means of two determinations.
In a preferred embodiment the compounds of the invention are binding selective for the α5 subunit relative to the α1, α2 and α3 subunit. Representative test results, obtained by the above described assay measuring binding affinity to HEK293 cells expressing human (h) receptors, are shown in the Table below.

[3] = positive control, maximally effective concentration, 3-6 oocytes per 96-well plate
[4] = maximally effective concentration

## Cc1ccc(-c2nnn(C)c2Cn2ncc(N3C[C@H](C)O[C@@H](C)C3)cc2=O)cn1 (racemic) [Example 12, 2-[[3-methyl-5-(6-methyl-3-pyridyl)triazol-4-yl]methyl]-5-[rac-(2S,6S)-2,6-dimethylmorpholin-4-yl]pyridazin-3-one]
h-GABA-A α5β3γ2 [1]
  Efficacy (GABA) %: 191%
  Fold increase h-GABA-A α5β3γ2 oocyte: 2.91
h-GABA-A α5β3γ2 [2]
  Ki: 2.6 nM

## Cc1nnn(-c2ccc(Cl)cc2F)c1Cn1ncc(N2C[C@H](C)O[C@@H](C)C2)cc1=O (racemic) [Example 37, 2-[[3-(4-chloro-2-fluoro-phenyl)-5-methyl-triazol-4-yl]methyl]-5-[rac-(2S,6S)-2,6-dimethylmorpholin-4-yl]pyridazin-3-one]
h-GABA-A α5β3γ2 [1]
  Efficacy (GABA) %: 135%
  Fold increase h-GABA-A α5β3γ2 oocyte: 2.35
h-GABA-A α5β3γ2 [2]
  Ki: 3.6 nM

## Cc1ccc(-n2nnc(C)c2Cn2ncc(N3C[C@@H](C)O[C@@H](C)C3)cc2=O)cn1 [Example 1, 5-(cis-2,6-dimethylmorpholin-4-yl)-2-((5-methyl-3-(6-methylpyridin-3-yl)triazol-4-yl)methyl)pyridazin-3-one]
h-GABA-A α5β3γ2 [1]
  Efficacy (GABA) %: 190%
  Fold increase h-GABA-A α5β3γ2 oocyte: 2.9
h-GABA-A α5β3γ2 [2]
  Ki: 34.4 nM

## Cc1ccc(-c2nnn(C)c2Cn2ncc(N3C[C@@H](C)O[C@@H](C)C3)cc2=O)cn1 [Example 2, 5-(cis-2,6-dimethylmorpholin-4-yl)-2-((3-methyl-5-(6-methylpyridin-3-yl)triazol-4-yl)methyl)pyridazin-3-one]
h-GABA-A α5β3γ2 [1]
  Efficacy (GABA) %: 230%
h-GABA-A α5β3γ2 [2]
  Ki: 4.7 nM

## C[C@@H]1CN(c2cnn(Cc3c(-c4ccc(Cl)cc4F)nnn3C)c(=O)c2)C[C@H](C)O1 [Example 3, 2-((5-(4-chloro-2-fluoro-phenyl)-3-methyl-triazol-4-yl)methyl)-5-(cis-2,6-dimethylmorpholin-4-yl)pyridazin-3-one]
h-GABA-A α5β3γ2 [1]
  Efficacy (GABA) %: 124%
  Fold increase h-GABA-A α5β3γ2 oocyte: 2.24
h-GABA-A α5β3γ2 [2]
  Ki: 1.2 nM

## Cc1nnn(-c2ccc(Cl)cc2F)c1Cn1ncc(N2CCOCC2)cc1=O [Example 4, 2-((3-(4-chloro-2-fluoro-phenyl)-5-methyl-triazol-4-yl)methyl)-5-morpholino-pyridazin-3-one]
h-GABA-A α5β3γ2 [1]
  Efficacy (GABA) %: 97%
  Fold increase h-GABA-A α5β3γ2 oocyte: 1.97
h-GABA-A α5β3γ2 [2]
  Ki: 15.6 nM

## Cc1nnn(-c2ccc(Cl)cc2F)c1Cn1ncc(N(C)C)cc1=O [Example 5, 2-((3-(4-chloro-2-fluoro-phenyl)-5-methyl-triazol-4-yl)methyl)-5-(dimethylamino)pyridazin-3-one]
h-GABA-A α5β3γ2 [1]
  Efficacy (GABA) %: 58%
  Fold increase h-GABA-A α5β3γ2 oocyte: 1.58
h-GABA-A α5β3γ2 [2]
  Ki: 18.4 nM

## Cc1nnn(-c2ccc(Cl)cc2F)c1Cn1ncc(N2CCN(C(=O)C3CC3)CC2)cc1=O [Example 6, 2-((3-(4-chloro-2-fluoro-phenyl)-5-methyl-triazol-4-yl)methyl)-5-(4-(cyclopropane-carbonyl)piperazin-1-yl)pyridazin-3-one]
h-GABA-A α5β3γ2 [1]
  Efficacy (GABA) %: 121%
  Fold increase h-GABA-A α5β3γ2 oocyte: 2.21
h-GABA-A α5β3γ2 [2]
  Ki: 71.8 nM

## Cc1nnn(-c2ccc(Cl)cc2F)c1Cn1ncc(N2C[C@@H](C)O[C@@H](C)C2)cc1=O [Example 7, 2-((3-(4-chloro-2-fluoro-phenyl)-5-methyl-triazol-4-yl)methyl)-5-((2S,6R)-2,6-dimethylmorpholin-4-yl)pyridazin-3-one]
h-GABA-A α5β3γ2 [1]
  Efficacy (GABA) %: 164%
  Fold increase h-GABA-A α5β3γ2 oocyte: 2.64
h-GABA-A α5β3γ2 [2]
  Ki: 5.8 nM

## Cc1ccc(-c2nnn(C)c2Cn2ncc(N3CCCC3)cc2=O)cn1 [Example 8, 2-((3-methyl-5-(6-methyl-3-pyridyl)triazol-4-yl)methyl)-5-pyrrolidin-1-yl-pyridazin-3-one]
h-GABA-A α5β3γ2 [1]
  Efficacy (GABA) %: 130%
  Fold increase h-GABA-A α5β3γ2 oocyte: 2.3
h-GABA-A α5β3γ2 [2]
  Ki: 20.9 nM

## Cc1ccc(-c2nnn(C)c2Cn2ncc(N3CCOCC3)cc2=O)cn1 [Example 9, 2-[[3-methyl-5-(6-methyl-3-pyridyl)triazol-4-yl]methyl]-5-morpholino-pyridazin-3-one]
h-GABA-A α5β3γ2 [1]
  Efficacy (GABA) %: 135%
  Fold increase h-GABA-A α5β3γ2 oocyte: 2.35
h-GABA-A α5β3γ2 [2]
  Ki: 16.8 nM

## Cc1ccc(-c2nnn(C)c2Cn2ncc(N3CCC(C)(C)C3)cc2=O)cn1 [Example 10, 5-(3,3-dimethylpyrrolidin-1-yl)-2-[[3-methyl-5-(6-methyl-3-pyridyl)triazol-4-yl]methyl]pyridazin-3-one]
h-GABA-A α5β3γ2 [1]
  Efficacy (GABA) %: 201%
  Fold increase h-GABA-A α5β3γ2 oocyte: 3.01
h-GABA-A α5β3γ2 [2]
  Ki: 4.4 nM

## Cc1ccc(-c2nnn(C)c2Cn2ncc(N3CCOC(C)(C)C3)cc2=O)cn1 [Example 11, 5-(2,2-dimethylmorpholin-4-yl)-2-[[3-methyl-5-(6-methyl-3-pyridyl)triazol-4-yl]methyl]pyridazin-3-one]
h-GABA-A α5β3γ2 [1]
  Efficacy (GABA) %: 48%
  Fold increase h-GABA-A α5β3γ2 oocyte: 1.48
h-GABA-A α5β3γ2 [2]
  Ki: 1.2 nM

## Cc1nnn(-c2ccc(Cl)cc2)c1Cn1ncc(N(C)C)cc1=O [Example 13, 2-[[3-(4-chlorophenyl)-5-methyl-triazol-4-yl]methyl]-5-(dimethylamino)pyridazin-3-one]
h-GABA-A α5β3γ2 [1]
  Efficacy (GABA) %: 31%
  Fold increase h-GABA-A α5β3γ2 oocyte: 1.31
h-GABA-A α5β3γ2 [2]
  Ki: 31.9 nM

## Cc1nnn(-c2ccc(Cl)cc2)c1Cn1ncc(N2CCNCC2)cc1=O [Example 14, 2-[[3-(4-chlorophenyl)-5-methyl-triazol-4-yl]methyl]-5-piperazin-1-yl-pyridazin-3-one]
h-GABA-A α5β3γ2 [1]
  Efficacy (GABA) %: 72%
  Fold increase h-GABA-A α5β3γ2 oocyte: 1.72
h-GABA-A α5β3γ2 [2]
  Ki: 39.6 nM

## Cc1ncc2n1-c1ccc(Cl)cc1C(c1ccccc1F)=NC2 [Midazolam, reference compound]
h-GABA-A α5β3γ2 [1]; [3]
  potentiated the GABA-induced current: ~150%
h-GABA-A α5β3γ2 [1]; [4]
  Fold increase: ~2.5

## COC(=O)c1cc2c(cn1)[nH]c1ccccc12 [β-CCM, reference compound]
h-GABA-A α5β3γ2 [1]; [3]
  inhibited the GABA-evoked current: ~50%
h-GABA-A α5β3γ2 [1]; [4]
  Fold increase: ~0.5
